Measured values from ChEMBL document CHEMBL1128946, “Novel inhibitors of influenza sialidases related to GG167 structure-activity, crystallographic and Molecular dynamics studies with 4H-pyran-2-carboxylic acid 6-carboxamides” (Bioorg Med Chem Lett, 1996).

Target: Neuraminidase (Influenza A virus (A/Puerto Rico/8/1934(H1N1)), UniProt P03468)
Experiment: Inhibition of influenza A sialidase (neuraminidase)
Design: species or system Influenza A virus (strain: A/PR/8/34)

Point of comparison: CCN(CC)C(=O)[C@@H]1OC(C(=O)O)=C[C@H](NC(=N)N)[C@H]1NC(C)=O, IC50 0.001 µM. Against it:
- CNC(=O)[C@@H]1OC(C(=O)O)=C[C@H](N)[C@H]1NC(C)=O — far higher, 190 µM
- CC(=O)N[C@@H]1[C@@H](N=C(N)N)C=C(C(=O)O)O[C@H]1C(=O)N(C)C — 25-fold higher, 0.025 µM
- CCCN(CCC)C(=O)[C@@H]1OC(C(=O)O)=C[C@H](N)[C@H]1NC(C)=O — 3-fold higher, 0.003 µM
- CCN(CCc1ccccc1)C(=O)[C@@H]1OC(C(=O)O)=C[C@H](N)[C@H]1NC(C)=O — 5-fold higher, 0.005 µM
- CCN(CC)C(=O)[C@@H]1OC(C(=O)O)=C[C@H](N)[C@H]1NC(C)=O — 3-fold higher, 0.003 µM
- CCCN(CCc1ccccc1)C(=O)[C@@H]1OC(C(=O)O)=C[C@H](N=C(N)N)[C@H]1NC(C)=O — 5-fold higher, 0.005 µM
- CCNC(=O)[C@@H]1OC(C(=O)O)=C[C@H](N)[C@H]1NC(C)=O — 13000-fold higher, 13 µM
- CNC(=O)[C@@H]1OC(C(=O)O)=C[C@H](N=C(N)N)[C@H]1NC(C)=O — 7000-fold higher, 7 µM
- CCCCN(CCCC)C(=O)[C@@H]1OC(C(=O)O)=C[C@H](N=C(N)N)[C@H]1NC(C)=O — 16-fold higher, 0.016 µM
- CC(=O)N[C@H]1[C@H]([C@H](O)[C@H](O)CO)OC(C(=O)O)=C[C@@H]1N — 300-fold higher, 0.3 µM
- CC(=O)N[C@@H]1[C@@H](N)C=C(C(=O)O)O[C@H]1C(=O)NCCc1ccccc1 — 12000-fold higher, 12 µM
- CC(=O)N[C@@H]1[C@@H](N)C=C(C(=O)O)O[C@H]1C(=O)N(C)CCc1ccccc1 — 320-fold higher, 0.32 µM
- CCCN(CCc1ccc(-c2ccccc2)cc1)C(=O)[C@@H]1OC(C(=O)O)=C[C@H](N)[C@H]1NC(C)=O — 3-fold higher, 0.003 µM
